This note sets out measurements from patent US6759538B2, “Substituted diphenyl heterocycles useful for treating HCV infection” (priority 2001, dated 2004).

This assay deals with HCV replicon. Kind of assay: HCV replicon assay (luciferase). Type of assay: cell-based, Hepatitis C virus (HCV). The conditions noted are these: 5-2 Luc replicon cells, 24 hours with compound, luciferase emission; first symbol of Replicon/Western. An excerpt: In one embodiment, the inhibitory activity of the compounds can be confirmed in a replicon assay that assesses the ability of a test compound to block or inhibit HCV replication in replicon cells. One example of a suitable replicon assay is the liver cell-line Huh 7-based replicon assay described in Lohmann et al., 1999, Science 285:110-113. A specific example of this replicon assay which utilizes luciferase translation is provided in the Examples Section. In one embodiment of this assay, the amount of test compound that yields a 50% reduction in translation as compared to a control cell (IC50) may be determined.
The inhibitory activity of certain exemplary compounds of the invention was confirmed using an HCV replicon assay. The HCV replicon can include such features as the HCV 5′ untranslated region including the HCV IRES, the HCV 3′ untranslated region, selected HCV genes encoding HCV polypeptides, selectable markers, and a reporter gene such as luciferase, GFP, etc. In the assay, actively dividing 5-2 Luc replicon-comprising cells (obtained from Rolf Bartenschlager; see Lohmann et al., 1999, Science 285:110-113) were seeded at a density of between about 5,000 and 7,500 cells/well onto 96 well plates (about 90 μl of cells per well) and incubated at 37° C. and 5% CO2 for 24 hours. Then, the test compound (in a volume of about 10 μl) was added to the wells at various concentrations and the cells were incubated for an additional 24 hours before luciferase assay. The media was aspirated from each well and Bright-Glo (Promega, Madison, Wis.) luciferase assay reagents were added to each well according to the manufacturer's instructions. Briefly, the Bright-Glo reagent was diluted 1:1 with PBS and 100 μl of diluted reagent was added to each well. After 5 min of incubation at room temperature, luciferin emission was quantified with a luminometer. In this assay, the amount of test compound that yielded a 50% reduction in luciferase emission (IC50) was determined.
(In general: In antiviral work, replicon cells carry a viral genome segment that copies itself.)
Broadly, the IC50 is the concentration needed to halve the response being measured. As to `O=C(Nc1cccc(-c2cc(-c3c(O)cccc3Cl)no2)c1)C(Cl)Cl` [Compound 83, 2,2-Dichloro-N-[3-[3-(2-chloro-6-hydroxyphenyl)-5-isoxazolyl]phenyl] Acetamide], the IC50 was at most 10 µM. As to `Cc1cccc(Cl)c1-c1cc(-c2cccc(NC(=O)C(Cl)Cl)c2)on1` [Compound 31, 2,2-Dichloro-N-[3-[3-(2-chloro-6-methylphenyl)-5-isoxazolyl]phenyl] Acetamide], the IC50 is at most 10 µM. Regarding `O=C(Nc1cccc(-c2cc(-c3c(Cl)cc(OCCCN4CCOCC4)cc3Cl)no2)c1)C(Cl)Cl` [Compound 73, 2,2-Dichloro-N-[3-[3-[2,6-dichloro-4-(N-morpholinopropyleneoxy)phenyl]-5-isoxazolyl]-phenyl] Acetamide], the IC50 is at most 10 µM. In the case of `O=C(Nc1cccc(-c2cc(-c3ccccc3C(F)(F)F)no2)c1)C(Cl)Cl` [Compound 33, 2,2-Dichloro-N-[3-[3-(2-trifluoromethylphenyl)-5-isoxazolyl]phenyl] Acetamide] it was at most 10 µM. In the case of `CN1CCN(c2cccc(C(F)(F)F)c2-c2cc(-c3cccc(NC(=O)C(Cl)Cl)c3)on2)CC1` [Compound 109, 2,2-Dichloro-N-[3-[3-[2-trifluoromethyl-6-(4-methylpiperazino)phenyl]-5-isoxazolyl]-phenyl] Acetamide] it was at most 10 µM; in that of `CS(=O)(=O)c1cccc(F)c1-c1cc(-c2cccc(NC(=O)C(Cl)Cl)c2)on1` [Compound 153, 2,2-Dichloro-N-[3-[3-(2-fluoro-6-methylsulfonyl)phenyl-5-isoxazolyl]phenyl] Acetamide], over 10 µM; in that of `COc1ccc(-c2cc(-c3c(Cl)cccc3Cl)no2)cc1NC(=O)C(Cl)Cl` [Compound 173, 2,2-Dichloro-N-[3-[3-(2,6-dichlorophenyl)-5-isoxazolyl]-6-methoxyphenyl] Acetamide], at most 10 µM. In the case of `CN(C(=O)C(Cl)Cl)c1cccc(-c2cc(-c3c(Cl)cccc3Cl)no2)c1` [Compound 57, 2,2-Dicbloro-N-[3-[3-(2,6-dichlorophenyl)-5-isoxazolyl]phenyl]-N-methyl Acetamide] it was at most 10 µM; in that of `O=C(O)c1ccccc1-c1cc(-c2cccc(NC(=O)C(Cl)Cl)c2)on1` [Compound 157, 2,2-Dichloro-N-[3-[3-(2-carboxyphenyl)-5-isoxazolyl]phenyl] Acetamide], over 10 µM. As to `COC(=O)c1ccccc1-c1cc(-c2cccc(NC(=O)C(Cl)Cl)c2)on1` [Compound 115, 2,2-Dichloro-N-[3-[3-(2-carbomethoxy)phenyl-5-isoxazolyl]phenyl] Acetamide], the half-inhibitory concentration (IC50) was at most 10 µM. In the case of `COc1ccc(NC(=O)C(Cl)Cl)cc1-c1cc(-c2c(Cl)cccc2Cl)no1` [Compound 127, 2,2-Dichloro-N-[3-[3-(2,6-dichlorophenyl)-5-isoxazolyl]-4-methoxyphenyl] Acetamide] it was at most 10 µM.

Regarding `O=C(Nc1cccc(-c2cc(-c3c(O)cccc3C(F)(F)F)no2)c1)C(Cl)Cl` [Compound 35, 2,2-Dichloro-N-[3-[3-(2-hydroxy-6-trifluoromethylphenyl)-5-isoxazolyl]phenyl] Acetamide], the IC50 was at most 10 µM.

Consider `O=C(Nc1cccc(-c2cc(-c3c(F)cccc3C(F)(F)F)no2)c1)C(Cl)Cl` [Compound 41, 2,2-Dichloro-N-[3-[3-(2-fluoro-6-trifluoromethylphenyl)-5-isoxazolyl]phenyl] Acetamide], for which the IC50 is at most 10 µM. In the case of `COc1cccc(C)c1-c1cc(-c2cccc(NC(=O)C(Cl)Cl)c2)on1` [Compound 91, 2,2-Dichloro-N-[3-[3-(2-methoxy-6-methylphenyl)-5-isoxazolyl]phenyl] Acetamide] it was at most 10 µM; in that of `Cc1ccc(Cl)c(-c2cc(-c3cccc(NC(=O)C(Cl)Cl)c3)on2)c1F` [Compound 51, 2,2-Dichloro-N-[3-[3-(6-chloro-2-fluoro-3-methylphenyl)-5-isoxazolyl]phenyl] Acetamide], at most 10 µM.
